From patent US12433861B2, “Compositions and methods for treating reperfusion injury or hemorrhage after recanalization therapy” (GNT Pharma Co., Ltd., priority 2020, dated 2025)

Experiments:
adult rats = details: rat, in vivo, iv, 200 mg/kg
[1] = tested on: adult rats treated with rt-PA after 3-h tMCAO; experiment: rt-PA-induced hemorrhagic transformation following 3-h occlusion of middle cerebral artery (tMCAO); assay type: in vivo, rat; details: for hemorrhage / hemorrhagic transformation in the brain: 10 mg/kg rt-PA IV plus 30 mg/kg IV after reperfusion, 3-h tMCAO, 24 h, potassium salt
Description: Male Sprague-Dawley rats (300-350 g; 15-16 animals/group) were anesthetized with chloral hydrate (400 mg/kg, IP) and the anesthesia was sustained for about 1.5 h during the procedure. The rectal temperature was recorded and maintained at 37.0-37.5° C. using a rectal probe and homoeothermic blanket controlled by a temperature control unit (Letica Scientific Instruments). Occlusion of the MCA was done according to the previous report (Gwag et al., 2007). Briefly, the right common carotid artery, external carotid artery (ECA), and internal carotid artery (ICA) were exposed. A length of 4-0 monofilament nylon suture (17 mm, pre-coated with silicone) with its tip rounded by heating near a flame was advanced from the lumen of the ICA until it blocked the origin of the middle cerebral artery (MCA). The suture remained for 3 h and was withdrawn for reperfusion. After 24 h, the brain was removed immediately, placed in the fixative for 15 min, and used for further analysis.
Animals received transient focal cerebral ischemia for 3 h as described above with intravenous administration of 10 mg/kg rt-PA or 10 mg/kg rt-PA plus 30 mg/kg nelonemdazK after reperfusion. rt-PA (10 mg/kg) dissolved in water for injection ([…]) was injected through femoral vein over 20 min from 5 min after reperfusion. NelonemdazK (30 mg/kg) dissolved in saline (6 mg/mL; 5 mL/kg) was injected through femoral vein over 5 min immediately after the end of rt-PA infusion.

normal adult rats = experiment: rt-PA-induced hemorrhagic transformation model (intracortical rt-PA) in normal adult rats: Evans blue extravasation and infarct volume; assay type: in vivo, rat; details: intracortical 0.66 mg/kg rt-PA
Description: Male Sprague-Dawley rats (340-380 g) were anesthetized with chloral hydrate (400 mg/kg, IP). The animals received intracortical injection of rt-PA (0.66 mg/kg; total […]) coordinated with 2.6 mm posterior, 5.4 mm lateral, and 3.8 mm from bregma at a flow rate of 0.5 μL/min using a infusion pump and Hamilton syringe. After the end of infusion, the syringe was removed from the cortex and nelonemdazK (30 mg/kg) was administrated through femoral vein for 5 min (3 mg/mL; 10 mL/kg). Six hours later, the rats were anesthetized and intravenously administrated with 4% Evans blue solution. Twenty minutes later, the rats were perfused transcardially first with saline and next with 4% paraformaldehyde. The brain was removed immediately and placed in the fixative for 15 min and scanned for evaluation of extravasation area of Evans blue to indirectly measure rt-PA-induced hemorrhagic transformation which occurs as a result of the breakdown of the blood-brain barrier (Jiang et al., 2018). To evaluate brain damage volume, the brain tissues were stored in 4% paraformaldehyde for 3 days and then processed overnight for paraffin embedding and cresyl violet staining. The extravasation area was measured by TINA imaging system (KAIST, Korea).
Animals received the intracortical injection of 0.66 mg/kg rt-PA that was followed by subsequent IV administration of vehicle or 30 mg/kg nelonemdazK 5 min later. Hemorrhagic transformation was investigated by analyzing extravasation of Evans blue dye at 6 h after rt-PA. (Upper panel) Compared to the sham control group, administration of rt-PA produced hemorrhagic transformation evident by extravasation of Evans blue, which was prevented by subsequent treatment with nelonemdazK.
Animals received sham operation or the intracortical injection of 0.66 mg/kg rt-PA, alone or with the subsequent intravenous administration of vehicle or 30 mg/kg nelonemdazK. Animals were sacrificed 6 h later and infarct volume was analyzed after staining brain sections with cresyl violet. (Upper panel) Photographs of brain sections stained with cresyl violet. Note brain lesion following the intracortical injections of rt-PA that was prevented by the administration of nelonemdazK. (Lower panel) Quantitation of infarct volume (Mean±S.E.M., n=3 for sham and 6 for rt-PA-treated groups) by summation of lesion areas in brain sections.

ischemic stroke patients = details: human, in vivo, 5 days
Description: NMDA receptor antagonists can cause adverse events in ischemic stroke patients.
The ENIS trial was to examine efficacy as well as safety of the intravenous infusions of nelonemdazK for acute ischemic stroke patients (35-80 years old) receiving at least one kind of thrombolytic drugs including rtPA or urokinase within 8 hours of onset. A total of 238 patients were enrolled for the ENIS trial and allocated randomly in a double-blinded manner to one of 4 groups for the intravenous infusions of test drugs as follows: (Group A) placebo [0.9% normal saline], (Group B) 2,750 mg nelonemdazK for 5 days [500 mg for 1st infusion followed by 2nd-10th infusions approximately at 12 h intervals (250 mg for each infusion)], (Group C) 5,250 mg nelonemdazK for 5 days [750 mg for 1st infusion followed by 2nd-10th infusions approximately at 12 h intervals (500 mg for each)], and (Group D) 6,000 mg nelonemdazK for 5 days [1500 mg for 1st infusion followed by 2nd-10th infusions approximately at 12 h intervals (500 mg for each)]. Acute ischemic stroke patients due to occlusion in internal carotid artery system within 8 hours of onset were enrolled. Patients with The National Institutes of Health Stroke Scale (NIHSS; range 0-42, with higher scores indicating greater stroke severity) scores of 4 to 22 and limb weakness including motor arm or motor leg score≥2 of NIHSS were included. All the patients received at least one kind of thrombolytic therapy before treatment of any study drug.

Question: `O=C([O-])c1cc(NCc2c(F)c(F)c(C(F)(F)F)c(F)c2F)ccc1O.[K+]` [nelonemdazK, 2-Hydroxy-5-(2,3,5,6-tetrafluoro-4-trifluoromethylbenzylamino)benzoic acid potassium salt] was tested. Which neuronal injury (adult rats) did it give?
Answer: not observed

Question: And the “rate of hemorrhagic transformation” value ([1]; 10 mg/kg rt-PA IV plus 30 mg/kg IV after 3-h tMCAO, p<0.05 Fisher's exact test)?
Answer: significantly reduced

Question: What about the “hemorrhage / hemorrhagic transformation in the brain” value ([1]; listed as NelonemdazK) of the same compound?
Answer: prevented hemorrhage

Question: What about the “hemorrhage / hemorrhagic transformation in the brain” value [1] of the same compound?
Answer: prevents hemorrhagic transformation

Question: What about the “hemorrhagic transformation evident by extravasation of Evans blue” value (normal adult rats; 30 mg/kg IV 5 min later, 6 h after rt-PA) of the same compound?
Answer: prevented

Question: What about the “brain lesion (cresyl violet)” value (normal adult rats; 30 mg/kg IV, 6 h) of the same compound?
Answer: prevented

Question: And the “volume of Evans blue extravasation” value (normal adult rats; 30 mg/kg IV, 6 h, vs vehicle, p<0.05)?
Answer: significantly reduced

Question: What about the infarct volume (normal adult rats; 30 mg/kg IV, 6 h after rt-PA, vs vehicle) of the same compound?
Answer: significantly reduced

Question: And the “% of subjects showing abnormal behavior: Agitation” value (ischemic stroke patients)?
Answer: 2%

Question: What about the “% of subjects showing abnormal behavior: Confusion” value (ischemic stroke patients) of the same compound?
Answer: 0 (0%)

Question: And the “% of subjects showing abnormal behavior: Delirium” value (ischemic stroke patients)?
Answer: 0 (0%)

Question: And the “% of subjects showing abnormal behavior: Hallucination” value (ischemic stroke patients)?
Answer: 0 (0%)

Question: And the “% of subjects showing abnormal behavior: Paranoia” value (ischemic stroke patients)?
Answer: 0 (0%)

Question: And the “% of subjects showing abnormal behavior: Stupor” value (ischemic stroke patients)?
Answer: 1 (1%)

Question: And the “Number of subjects showing abnormal behavior: Agitation” value (ischemic stroke patients)?
Answer: 4

Question: What about the “Number of subjects showing abnormal behavior: Confusion” value (ischemic stroke patients) of the same compound?
Answer: 0 (0%)

Question: And the “Number of subjects showing abnormal behavior: Delirium” value (ischemic stroke patients)?
Answer: 0 (0%)

Question: And the “Number of subjects showing abnormal behavior: Hallucination” value (ischemic stroke patients)?
Answer: 0 (0%)

Question: What about the “Number of subjects showing abnormal behavior: Paranoia” value (ischemic stroke patients) of the same compound?
Answer: 0 (0%)

Question: What about the “Number of subjects showing abnormal behavior: Stupor” value (ischemic stroke patients) of the same compound?
Answer: 1 (1%)
